From PubChem BioAssay AID248 (DTP/NCI, 2004)
Inconclusive results and toxic doses are left out. Rule as the data show it: active = T/C of 150% or more; inactive = T/C below 125%.

Test system: L1210 leukemia ip in BDF1 mice, survival T/C
Assay: NCI In Vivo Anticancer Drug Screen. Data for tumor model L1210 Leukemia (intraperitoneal) in B6D2F1 (BDF1) mice
Details: endpoint: mean survival time, higher = longer survival
How it was run: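 Read-out is survival time, reported as the treated-group measurement over the vehicle-control measurement.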

[1] = dose: 100.0 mg/kg/injection, schedule: Q01DX009 (ip), vehicle: Klucel (hydroxypropylcellulose) (HPC)
[2] = dose: 100.0 mg/kg/injection, schedule: Q04DX003 (ip), vehicle: Klucel (hydroxypropylcellulose) (HPC)
[3] = dose: 200.0 mg/kg/injection, schedule: Q01DX009 (ip), vehicle: Klucel (hydroxypropylcellulose) (HPC)
[4] = dose: 200.0 mg/kg/injection, schedule: Q04DX003 (ip), vehicle: Klucel (hydroxypropylcellulose) (HPC)
[5] = dose: 400.0 mg/kg/injection, schedule: Q04DX003 (ip), vehicle: Klucel (hydroxypropylcellulose) (HPC)
[6] = dose: 100.0 mg/kg/injection, schedule: Q04DX003 (ip), vehicle: saline with Tween-80
[7] = dose: 200.0 mg/kg/injection, schedule: Q04DX003 (ip), vehicle: saline with Tween-80
[8] = dose: 100.0 mg/kg/injection, schedule: Q01DX001 (ip), vehicle: carboxymethylcellulose (CMC)
[9] = dose: 200.0 mg/kg/injection, schedule: Q01DX001 (ip), vehicle: carboxymethylcellulose (CMC)
[10] = dose: 400.0 mg/kg/injection, schedule: Q01DX001 (ip), vehicle: carboxymethylcellulose (CMC)
[11] = dose: 12.5 mg/kg/injection, schedule: Q01DX009 (ip), vehicle: saline with Tween-80
[12] = dose: 25.0 mg/kg/injection, schedule: Q01DX009 (ip), vehicle: saline with Tween-80
[13] = dose: 100.0 mg/kg/injection, schedule: Q01DX001 (ip), vehicle: saline with Tween-80
[14] = dose: 100.0 mg/kg/injection, schedule: Q01DX001 (ip), vehicle: saline
[15] = dose: 200.0 mg/kg/injection, schedule: Q01DX001 (ip), vehicle: saline
[16] = dose: 400.0 mg/kg/injection, schedule: Q01DX001 (ip), vehicle: saline
[17] = dose: 100.0 mg/kg/injection, schedule: Q04DX002 (ip), vehicle: Klucel (hydroxypropylcellulose) (HPC)
[18] = dose: 100.0 mg/kg/injection, schedule: Q04DX003 (ip), vehicle: saline

Measured: T/C

CCOC(=O)c1cc(/C=C/c2ccccc2)[nH]c(=O)c1C#N
inactive: [1] 98 % of control | [2] 95 % of control | [3] 97 % of control | [4] 93 % of control | dose: 400.0 mg/kg/injection, schedule: Q01DX009 (ip), vehicle: Klucel (hydroxypropylcellulose) (HPC) 98 % of control | [5] 90 % of control

OC(c1ccccc1)C(Nc1ccccc1)c1ccccc1 (stereo not given)
inactive: dose: 75.0 mg/kg/injection, schedule: Q01DX001 (ip), vehicle: saline 102 % of control | [6] 96 % of control | dose: 150.0 mg/kg/injection, schedule: Q01DX001 (ip), vehicle: saline 94 % of control | [7] 98 % of control | dose: 300.0 mg/kg/injection, schedule: Q01DX001 (ip), vehicle: saline 97 % of control | dose: 400.0 mg/kg/injection, schedule: Q04DX003 (ip), vehicle: saline with Tween-80 93 % of control

CCCC#CCCCN1CCC2(CC1)C(=O)NCN2c1ccccc1
inactive: dose: 20.0 mg/kg/injection, schedule: Q04DX003 (ip), vehicle: Klucel (hydroxypropylcellulose) (HPC) 103 % of control | dose: 40.0 mg/kg/injection, schedule: Q04DX003 (ip), vehicle: Klucel (hydroxypropylcellulose) (HPC) 103 % of control | dose: 80.0 mg/kg/injection, schedule: Q04DX003 (ip), vehicle: Klucel (hydroxypropylcellulose) (HPC) 91 % of control | [2] 93 % of control

CC1(C)OCC(C(OC(=O)c2ccccc2)C(OC2CCCCO2)C2COC(C)(C)O2)O1 (stereo not given)
inactive: [2] 94 % of control | [4] 96 % of control | [5] 94 % of control

CSc1ccc(N=Cc2ccccc2O)cc1
inactive: [8] 93 % of control | [9] 93 % of control | [10] 98 % of control

O=C(CBr)c1ccccc1
inactive: dose: 10.0 mg/kg/injection, schedule: Q04DX003 (ip), vehicle: saline with Tween-80 93 % of control | dose: 20.0 mg/kg/injection, schedule: Q04DX003 (ip), vehicle: saline with Tween-80 97 % of control

C=CC1CCCCC1C=C (stereo not given)
inactive: [11] 104 % of control | [12] 102 % of control | dose: 50.0 mg/kg/injection, schedule: Q01DX009 (ip), vehicle: saline with Tween-80 102 % of control

C[C@]12CCC(=O)C=C1CC[C@H]1[C@@H]3CCC(=O)[C@@]3(C)CC(=O)[C@@]12S
inactive: dose: 100.0 mg/kg/injection, schedule: Q01DX001 (ip), vehicle: steriod suspending solution 87 % of control | dose: 100.0 mg/kg/injection, schedule: Q04DX003 (ip), vehicle: steriod suspending solution 93 % of control | dose: 200.0 mg/kg/injection, schedule: Q01DX001 (ip), vehicle: steriod suspending solution 93 % of control | dose: 200.0 mg/kg/injection, schedule: Q04DX003 (ip), vehicle: steriod suspending solution 108 % of control | dose: 400.0 mg/kg/injection, schedule: Q01DX001 (ip), vehicle: steriod suspending solution 97 % of control | dose: 400.0 mg/kg/injection, schedule: Q04DX003 (ip), vehicle: steriod suspending solution 95 % of control

O=C1OCc2cccc3cccc1c23
inactive: [6] 115 % of control | [7] 104 % of control

CC1(C)N=C(N)N=C(N)N1c1cccc(C(=O)CCl)c1
inactive: dose: 25.0 mg/kg/injection, schedule: Q01DX001 (ip), vehicle: saline with Tween-80 95 % of control | dose: 50.0 mg/kg/injection, schedule: Q01DX001 (ip), vehicle: saline with Tween-80 103 % of control | [13] 101 % of control

COc1cccc(OC)c1CCO
inactive: dose: 50.0 mg/kg/injection, schedule: Q01DX001 (ip), vehicle: carboxymethylcellulose (CMC) 88 % of control | [8] 102 % of control | [9] 88 % of control | [10] 100 % of control

CC(=N/N(C)c1ccccc1)/C(C)=N/N(C)c1ccccc1
inactive: dose: 5.0 mg/kg/injection, schedule: Q01DX001 (ip), vehicle: other 96 % of control | dose: 10.0 mg/kg/injection, schedule: Q01DX001 (ip), vehicle: other 102 % of control | dose: 20.0 mg/kg/injection, schedule: Q01DX001 (ip), vehicle: other 100 % of control | dose: 40.0 mg/kg/injection, schedule: Q01DX001 (ip), vehicle: other 100 % of control | dose: 80.0 mg/kg/injection, schedule: Q01DX001 (ip), vehicle: other 93 % of control

c1ccc(N2CCN(Cc3ccc4ccccc4c3)CC2)cc1
inactive: [13] 96 % of control | dose: 200.0 mg/kg/injection, schedule: Q01DX001 (ip), vehicle: saline with Tween-80 100 % of control | dose: 400.0 mg/kg/injection, schedule: Q01DX001 (ip), vehicle: saline with Tween-80 91 % of control

O=C(NNc1nc(-c2ccccc2)nc(-c2ccccc2)n1)c1ccccc1
inactive: [14] 95 % of control | [15] 96 % of control | [16] 89 % of control

CCN1C(c2ccccc2)C1c1ccccc1 (stereo not given)
inactive: [2] 101 % of control | [4] 102 % of control | [5] 101 % of control

O=C(NNc1ccccc1)c1ccc(Cl)cc1
inactive: dose: 100.0 mg/kg/injection, schedule: Q04DX002 (ip), vehicle: gum acacia 112 % of control | dose: 200.0 mg/kg/injection, schedule: Q04DX002 (ip), vehicle: gum acacia 87 % of control | dose: 400.0 mg/kg/injection, schedule: Q04DX002 (ip), vehicle: gum acacia 102 % of control

C[n+]1cccc2cccc(O)c21
inactive: [17] 115 % of control

CCCCCCCCCCCCC[n+]1ccc(C#N)cc1
inactive: dose: 7.5 mg/kg/injection, schedule: Q04DX003 (ip), vehicle: saline 101 % of control | dose: 15.0 mg/kg/injection, schedule: Q04DX003 (ip), vehicle: saline 98 % of control | dose: 30.0 mg/kg/injection, schedule: Q04DX003 (ip), vehicle: saline 101 % of control

CC(C)(C)OC(=O)N1CC=CCN1C(=O)OC(C)(C)C
inactive: dose: 100.0 mg/kg/injection, schedule: Q01DX001 (ip), vehicle: other 98 % of control | dose: 200.0 mg/kg/injection, schedule: Q01DX001 (ip), vehicle: other 93 % of control | dose: 400.0 mg/kg/injection, schedule: Q01DX001 (ip), vehicle: other 102 % of control

COC(=O)C1C2CCCCC2(C)CC12SCCS2 (stereo not given)
inactive: [17] 107 % of control | dose: 200.0 mg/kg/injection, schedule: Q04DX002 (ip), vehicle: Klucel (hydroxypropylcellulose) (HPC) 107 % of control | dose: 400.0 mg/kg/injection, schedule: Q04DX002 (ip), vehicle: Klucel (hydroxypropylcellulose) (HPC) 93 % of control

Oc1ccccc1C=NCCN1CC1.Oc1ccccc1C=NCCN1CC1.[Ni+2]
inactive: [11] 88 % of control | [12] 96 % of control | [18] 98 % of control

O=c1ccn2ccccc2n1
inactive: dose: 50.0 mg/kg/injection, schedule: Q01DX009 (ip), vehicle: saline 101 % of control | dose: 100.0 mg/kg/injection, schedule: Q01DX009 (ip), vehicle: saline 99 % of control | [18] 103 % of control | dose: 200.0 mg/kg/injection, schedule: Q01DX009 (ip), vehicle: saline 98 % of control | dose: 200.0 mg/kg/injection, schedule: Q04DX003 (ip), vehicle: saline 109 % of control

C[N+](C)(C)CCOC(=O)Nc1ccc(C(c2ccc(NC(=O)OCC[N+](C)(C)C)cc2)c2ccc(NC(=O)OCC[N+](C)(C)C)cc2)cc1
inactive: dose: 0.25 mg/kg/injection, schedule: Q01DX009 (ip), vehicle: saline with Tween-80 98 % of control | dose: 0.5 mg/kg/injection, schedule: Q01DX009 (ip), vehicle: saline with Tween-80 100 % of control

Cn1c(=O)c2c(ncn2CCOC(=O)C(C)(C)Oc2ccc(Cl)cc2)n(C)c1=O
inactive: [1] 92 % of control | [2] 90 % of control | [3] 105 % of control | [4] 96 % of control | [5] 93 % of control

Clc1cc(-c2ccccc2Br)nc2ccccc12
inactive: [14] 90 % of control | [15] 90 % of control | [16] 88 % of control

O=[N+]([O-])c1ccccc1Nc1ccccc1
inactive: [8] 91 % of control | [9] 89 % of control | [10] 91 % of control
